PMC5840523, “Assessment of a pretomanid analogue library for African trypanosomiasis: Hit-to-lead studies on 6-substituted 2-nitro-6,7-dihydro-5H-imidazo[2,1-b][1,3]thiazine 8-oxides” (Bioorganic & Medicinal Chemistry Letters, 2018)
Converted amounts (≈) assume the structure as drawn.

What was measured:
in vitro = details: dog, MDCK-MDR1, Permeability Papp
L929 mouse fibroblasts = assay: Cytotoxicity toward L929 mouse fibroblasts (Scynexis); assay type: cell-based
[1] = Kinetic aqueous solubility in pH 7.4 PBS; assay type: physicochemical
Text: Table 1 Inhibitory potency, metabolic stability, aqueous solubility, and MDCK-MDR1 cell permeability for 15 screening hits against T. b. brucei. | column: Solubility ^c / (µg/mL)

T. b. brucei 427 = T. b. brucei 427 growth inhibition (Scynexis); assay type: cell-based, Trypanosoma brucei brucei; details: for Selectivity Index: L929 vs T. b. brucei; for IC50: Trypanosoma brucei, growth inhibition of T. b. brucei 427, mean ± SD
Mouse liver S9 stability = assay type: in vitro ADME; details: CD-1, mouse, mouse liver S9 subcellular fraction, half-life in mouse liver S9 fraction; read-out: Mouse S9 t1/2
T. b. brucei (TREU 667) = assay: CNS (stage 2, chronic) HAT infection mouse model; assay type: in vivo, T. b. brucei; female Swiss Webster mice
Method: Therefore, 24 was examined in a stage 1 HAT mouse model.[14] Briefly, dosing was orally once daily for four days, starting 24 h postinfection, and parasitemia was assessed weekly via tail vein blood smears (see the Supporting Information). Excellent activity was observed (Table 4), with 24 providing complete cures (i.e. parasite free blood smears after >30 days) to all mice at doses as low as 5 mg/kg, similar to the control drug pentamidine (given i.p. at 2 mg/kg), whereas the vehicle only mice died on day 7. […]
Mouse Model for Chronic HAT Inf ection. Compound 24 was tested for in vi vo efficac y against chronic HAT infection caused b y T. b. brucei (TREU 667 strain) at the Haskin s Laboratories, Pace Universit y. […]
suspension formulation (0.8% CMC, 0.1% SDS in water) to groups of 8 or 10infected f emal e Swiss Webster mice, starting 21 d postinfection, according to a report ed method. 5 Animals remaining parasite free for more than 180 da ys beyond the end of the treatment period were […]

[2] = 10 mg/kg single i.p. dose on day 4
[3] = 10 mg/kg single i.p. dose on day 21

Compound | Papp at 1 h, 3 µM (in vitro) [×10⁻⁶ cm/s] | solubility [1] [µg/mL] | half-life (Mouse liver S9 stability) [min] | IC50 (L929 mouse fibroblasts) [µg/mL] | Selectivity Index (T. b. brucei 427) | IC50 (T. b. brucei 427) [µg/mL] | Cured (T. b. brucei (TREU 667); [2]) [%] | Cured/Total (T. b. brucei (TREU 667); [2]) | Cured (T. b. brucei (TREU 667); [3]) [%] | Cured/Total (T. b. brucei (TREU 667); [3]) | Mean relapse time (T. b. brucei (TREU 667); [3]) [days]
CC1(COCc2ccc(OCc3ccccc3)cc2)Cn2cc([N+](=O)[O-])nc2S1 (centres unmarked) [Compound 20] | 46.5 | 1.2 (≈ 2.92 µM) | – | > 10 | >4.5 | 2.2 ± 0.7 (≈ 5.35 µM) | – | – | – | – | –
COc1ccc(-c2ccc(O[C@@H]3COc4nc([N+](=O)[O-])cn4C3)nc2)cn1 [Compound 21] | 76.9 | 18 (≈ 48.7 µM) | 239 | > 10 | >3.7 | 2.7 ± 0.5 (≈ 7.31 µM) | – | – | – | – | –
CSc1ccc(OCc2ncc([N+](=O)[O-])n2C)cc1 [Compound 4, fexinidazole, reference compound] | 73.2 | – | – | – | – | – | – | – | – | – | –
CC1(COCc2ccc(OCc3ccccc3)cc2)Cn2cc([N+](=O)[O-])nc2[S+]1[O-] (centres unmarked) [Compound 11] | 65.1 | 1.3 (≈ 3.04 µM) | < 70 | > 10 | >77 | 0.13 ± 0.04 (≈ 0.304 µM) | – | – | – | – | –
O=[N+]([O-])c1cn2c(n1)SC(COCc1ccc(OCc3ccccc3)cc1)C2 (centres unmarked) [Compound 15] | 58.3 | 1.2 (≈ 3.02 µM) | < 70 | > 10 | >22 | 0.46 ± 0.21 (≈ 1.16 µM) | – | – | – | – | –
Berenil [reference compound] | – | – | – | – | – | – | 100 | 5/5 | 0 | 0/5 | 41

Second part, led by results:

Papp at 1 h, 3 µM (in vitro) [×10⁻⁶ cm/s] | solubility [1] [µg/mL] | half-life (Mouse liver S9 stability) [min] | Compound | IC50 (L929 mouse fibroblasts) [µg/mL] | Selectivity Index (T. b. brucei 427) | IC50 (T. b. brucei 427) [µg/mL] | Cured (T. b. brucei (TREU 667); [2]) [%] | Cured/Total (T. b. brucei (TREU 667); [2]) | Cured (T. b. brucei (TREU 667); [3]) [%] | Cured/Total (T. b. brucei (TREU 667); [3]) | Mean relapse time (T. b. brucei (TREU 667); [3]) [days]
79.3 | 10 (≈ 24.6 µM) | 146 | O=[N+]([O-])c1cn2c(n1)OC[C@@H](Oc1cc(-c3ccc(C(F)(F)F)nc3)ccn1)C2 [Compound 22] | > 10 | >3.6 | 2.8 ± 0.2 (≈ 6.87 µM) | – | – | – | – | –
36.3 | 2.4 (≈ 6.08 µM) | < 70 | CN1CC(OCc2ccc(OCc3ccccc3)cc2)Cn2nc([N+](=O)[O-])cc21 (centres unmarked) [Compound 23] | > 10 | >3.3 | 3 ± 0.9 (≈ 7.61 µM) | – | – | – | – | –
